Assays:
KDM7 (PHF8) = molecular target: T1, KDM7 (PHF8) (Homo sapiens, UniProt Q9UPP1); assay: Histone lysine demethylase AlphaLISA assay, KDM7; format: biochemical; details: read-out: PHF8 HDME Inhibition IC50
T1 construct: KDM7 (PHF8); BRIC; 1-1322; Bac
Protocol: (§1) Assays are performed analogously to the protocol described by PerkinElmer (Roy et al. PerkinElmer Technical Note: AlphaLISA #12, April 2011)
Enzymes are dissolved in enzyme buffer and incubated for 10 min before being added to 3% DMSO solutions of compounds in enzyme buffer. Incubated for another 10 minutes, before substrate solution is added and the reaction mixture is incubated at room temperature. 10 μL acceptor beads, suspended in Epigenetic Buffer (Perkin Elmer AL008) from stock, are added and the suspension is incubated in the dark at room temperature, before a suspension of streptavidin donor beads (Perkin Elmer 6760002) in Epigenetic Buffer is added. After incubation at room temperature in the dark the plates are read. […]
BK9M2: Biotin-ARTKQTAR(KMe2)STGGKAPRKQ-NH2 (AnaSpec 64359)
BK9M1: Biotin-ARTKQTAR(KMe1)STGGKAPRKQ-NH2 (AnaSpec 64358) […]
(§2) Substrate Solution: Substrate, 25 μM L-Asc, and 10 μM α-KG in Buffer A.

KDM4C = molecular target: T2, KDM4C (Homo sapiens, UniProt Q9H3R0); assay: Histone lysine demethylase immunofluorescence assay, U2OS cells transfected with KDM4C; format: cell-based; details: U2OS cells transfected with pCMVHA KDM4C; mark detected H3K9me3; 20 hours
T2 construct: Full length; host or cells: U2OS
T2 sequence (Q9H3R0 1-1056): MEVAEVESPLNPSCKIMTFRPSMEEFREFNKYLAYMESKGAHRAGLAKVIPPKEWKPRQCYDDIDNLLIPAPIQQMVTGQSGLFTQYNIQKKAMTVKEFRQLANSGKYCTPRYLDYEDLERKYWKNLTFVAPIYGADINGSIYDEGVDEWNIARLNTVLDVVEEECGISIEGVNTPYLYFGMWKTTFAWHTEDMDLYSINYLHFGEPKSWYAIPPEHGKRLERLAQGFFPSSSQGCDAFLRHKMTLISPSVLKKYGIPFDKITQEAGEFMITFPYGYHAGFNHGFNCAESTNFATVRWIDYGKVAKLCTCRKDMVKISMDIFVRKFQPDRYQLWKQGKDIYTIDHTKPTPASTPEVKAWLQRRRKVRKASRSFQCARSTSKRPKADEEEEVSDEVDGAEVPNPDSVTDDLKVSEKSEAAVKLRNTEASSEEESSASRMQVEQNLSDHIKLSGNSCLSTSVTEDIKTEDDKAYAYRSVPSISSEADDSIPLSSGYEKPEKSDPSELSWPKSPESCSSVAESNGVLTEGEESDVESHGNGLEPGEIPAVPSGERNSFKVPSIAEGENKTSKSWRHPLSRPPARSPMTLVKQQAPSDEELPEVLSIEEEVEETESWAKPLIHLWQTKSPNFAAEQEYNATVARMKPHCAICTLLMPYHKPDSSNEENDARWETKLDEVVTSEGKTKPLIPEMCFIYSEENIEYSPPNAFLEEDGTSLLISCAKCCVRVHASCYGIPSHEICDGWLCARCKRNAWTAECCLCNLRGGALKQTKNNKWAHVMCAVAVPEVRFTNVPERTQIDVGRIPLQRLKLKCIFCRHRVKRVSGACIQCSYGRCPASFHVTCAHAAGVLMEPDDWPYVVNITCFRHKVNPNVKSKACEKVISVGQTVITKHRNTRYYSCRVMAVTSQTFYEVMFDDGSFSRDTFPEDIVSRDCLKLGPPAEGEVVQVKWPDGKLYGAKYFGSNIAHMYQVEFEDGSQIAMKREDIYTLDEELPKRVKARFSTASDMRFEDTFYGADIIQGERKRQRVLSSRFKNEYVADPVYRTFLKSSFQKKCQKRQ
Protocol: U2OS cells were seeded 24 hours before transfection. Transfection was performed with Fugene HD transfection reagent as recommended by the manufacturer. 6 hours after transfection, the cells were harvested and seeded into multi well plates into media containing compound. The media used was DMEM containing 10% FBS and pen/strep. 20 hours after incubation of cells with compounds, the cells were washed in PBS, harvested by fixation with formaldehyde 4% aqueous solution, and washed in PBS. Subsequently, the cells were permeabilized in PBS with 0.2% Triton X-100 for. Blocking was performed in PBS with 0.2% Triton X-100 and 5% FBS. The cells were incubated with primary antibodies in blocking solution over night at 4° C. The primary antibodies used in the assays were HA.11 (Covance, MMS-101P) and the antibody detecting the mark specified in the table below. After incubation with primary antibodies, the cells were washed with PBS, incubated with secondary antibodies (Alexa fluor 594 goat anti rabbit IgG, Invitrogen, A11012; Alexa flour 488 donkey anti mouse IgG, Invitrogen, A21202) and Hoechst, (Sigma, 33342) in blocking solution, and washed again with PBS. Finally, PBS was added and high throughput imaging and analysis were performed by an IN Cell Analyzer 1000 (GE Healthcare). The robot software analyzed individual cells and divided these into HA+ (transfected cells) and HA− (non-transfected cells). The IC50 values were based on an average measure of the staining of the mark specified in the table below in the transfected cells.

KDM4A (JMJD2A) = molecular target: T3, KDM4A (JMJD2A) (Homo sapiens, UniProt O75164); assay: Histone lysine demethylase AlphaLISA assay, KDM4A; format: biochemical; details: read-out: KDM4A HDME Inhibition IC50
T3 construct: 1-350; purchased BPS Bioscience, US; host or cells: E. coli
T3 sequence (O75164 1-350): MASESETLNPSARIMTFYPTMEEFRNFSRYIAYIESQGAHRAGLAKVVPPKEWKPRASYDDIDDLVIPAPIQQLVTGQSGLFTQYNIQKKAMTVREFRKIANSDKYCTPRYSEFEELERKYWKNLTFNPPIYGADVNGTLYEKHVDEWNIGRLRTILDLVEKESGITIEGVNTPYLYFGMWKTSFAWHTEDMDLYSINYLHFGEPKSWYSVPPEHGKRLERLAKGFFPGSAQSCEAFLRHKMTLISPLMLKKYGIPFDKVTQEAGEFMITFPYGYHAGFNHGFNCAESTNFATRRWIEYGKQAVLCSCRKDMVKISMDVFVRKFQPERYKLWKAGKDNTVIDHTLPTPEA
Protocol: as §1
Enzymes are dissolved in enzyme buffer and incubated for 10 min before being added to 3% DMSO solutions of compounds in enzyme buffer. Incubated for another 10 minutes, before substrate solution is added and the reaction mixture is incubated at room temperature. 10 μL acceptor beads, suspended in Epigenetic Buffer (Perkin Elmer AL008) from stock, are added and the suspension is incubated in the dark at room temperature, before a suspension of streptavidin donor beads (Perkin Elmer 6760002) in Epigenetic Buffer is added. After incubation at room temperature in the dark the plates are read.
BK9M3: Biotin-ARTKQTAR(KMe3)STGGKAPRKQ-NH2 (Caslo, Denmark) […]
as §2

T1 sequence (Q9UPP1 37-440 limits assumed): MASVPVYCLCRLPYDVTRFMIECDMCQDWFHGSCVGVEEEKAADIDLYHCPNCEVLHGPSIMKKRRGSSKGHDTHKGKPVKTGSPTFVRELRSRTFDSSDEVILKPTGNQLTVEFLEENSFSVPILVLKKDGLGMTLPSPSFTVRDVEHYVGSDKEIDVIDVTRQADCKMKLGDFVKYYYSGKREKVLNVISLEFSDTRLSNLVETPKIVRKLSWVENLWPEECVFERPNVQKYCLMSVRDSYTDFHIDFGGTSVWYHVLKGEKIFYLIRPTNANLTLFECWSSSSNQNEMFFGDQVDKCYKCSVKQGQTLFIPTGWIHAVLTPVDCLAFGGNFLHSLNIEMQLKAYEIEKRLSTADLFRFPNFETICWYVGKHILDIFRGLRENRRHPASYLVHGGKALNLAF

Row | Structure (SMILES) | IC50 (KDM7 (PHF8)) [µM] | IC50 (KDM4C) [µM] | IC50 (KDM4A (JMJD2A)) [µM]
1 | CCN(CC)CCCCNCc1cc(CNC(=O)C(F)(F)F)ccn1 [Compound 1, N-{[2-({[4-(diethylamino)butyl]-amino}methyl)pyridin-4-yl]methyl}-2,2,2-trifluoroacetamide] | 0.25 to 2.5 | 0.25 to 2.5 | 0.25 to 2.5
2 | CN(C)CCCNCc1cc(CN)ccn1 [Compound 3, [2-({[3-(dimethylamino)propyl]-amino}methyl)pyridin-4-yl]methanamine] | 0.25 to 2.5 | > 2.5 | < 0.25
3 | c1ccc(CN2CCC[C@H]2CNCc2cc(CNCC3CC3)ccn2)cc1 [Compound 16, {[(2S)-1-benzylpyrrolidin-2-yl]methyl}[(4-{[(cyclopropylmethyl)-amino]methyl}pyridin-2-yl)methyl]amine] | 0.25 to 2.5 |  | > 2.5
4 | CCN(CCN(C)C)C(=O)CNCc1cc(CNC(=O)C(F)(F)F)ccn1 [Compound 25, N-[(2-{[({[2-(dimethylamino)ethyl]-(ethyl)carbamoyl}-methyl)amino]methyl}-pyrtdin-4-yl)methyl]-2,2,2-trifluoroacetamide] | > 2.5 |  | > 2.5
5 | C(=N\C1CC1)/c1ccnc(CNCCCCN2CCC2)c1 [Compound 44, N-{[2-({[4-(azetidin-1-yl)butyl]amino}methyl)-pyridin-4-yl]methylidene}-cyclopropanamine] | > 2.5 |  | > 2.5
6 | CN(CCCn1cccn1)C(=O)CNCc1cc(/C=N/C2CC2)ccn1 [Compound 52, 2-[({4-[N-cyclopropyl-carboximidoyl]-pyridin-2-yl}methyl)amino]-N-methyl-N-[3-(1H-pyrazol-1-yl)propyl]acetamide] |  | > 2.5 | 0.25 to 2.5
7 | CCN(CC)C(=O)CNCc1cc(/C=N/CCC2CCCCC2)ccn1 [Compound 57, 2-[({4-[[(2-cyclohexylethyl)imino]-methyl]pyridin-2-yl}methyl)amino]-N,N-diethylacetamide] | > 2.5 |  | 0.25 to 2.5
8 | CCCCCCCC/N=C/c1ccnc(CNCC(=O)N(CC)CC)c1 [Compound 58, N,N-diethyl-2-[({4-[(octylimino)methyl]-pyridin-2-yl}methyl)amino]-acetamide] | > 2.5 |  | > 2.5
9 | CCN(CC)CCCCNCc1cc(/C=N/CCOC)ccn1 [Compound 60, [4-(diethylamino)butyl]-({4-[[(2-methoxyethyl)imino]-methyl]pyridin-2-yl}methyl)amine] | 0.25 to 2.5 |  | < 0.25
10 | CCN(CCN(C)C)C(=O)CNCc1cc(C2OCC(Cc3ccccc3)CN2C(=O)C(F)(F)F)ccn1 (centres unmarked) [Compound 90, 2-[({4-[5-benzyl-3-(trifluoroacetyl)-1,3-oxazinan-2-yl]pyridin-2-yl}methyl)amino]-N-[2-(dimethylamino)-ethyl]-N-ethylacetamide] | > 2.5 |  | 
11 | CCN(CCN(C)C)C(=O)CNCc1cc(C2OCC3(CC3)CN2C(=O)C(F)(F)F)ccn1 (centres unmarked) [Compound 91, N-[2--(dimethylamino)-ethyl]-N-ethyl-2-[({4-[7-(trifluoroacetyl)-5-oxa-7-azaspiro[2.5]-octan-6-yl]pyridin-2-yl}methyl)amino]-acetamide] | > 2.5 |  | 
12 | CN(Cc1ccccc1F)C(=O)CNCc1cc(/C=N/CCO)ccn1 [Compound 92, N-[(2-fluorophenyl)methyl]-2-[({4-[[(2-hydroxyethyl)imino]-methyl]pyridin-2-yl}methyl)amino]-N-methylacetamide] | > 2.5 | > 2.5 | 
13 | OCC/N=C/c1ccnc(CNCCc2ccccc2OCc2ccccc2)c1 [Compound 93, 2-[({2-[({2-[2-(benzyloxy)phenyl]-ethyl}amino)methyl]-pyridin-4-yl}methylidene)-amino]ethan-1-ol] | > 2.5 | > 2.5 | 
14 | CCN(CCC#N)C(=O)CNCc1cc(/C=N/CCO)ccn1 [Compound 94, N-(2-cyanoethyl)-N-ethyl-2-[({4-[[(2-hydroxyethyl)imino]-methyl]pyridin-2-yl}methyl)amino]-acetamide] | 0.25 to 2.5 | > 2.5 | 
15 | CC(C)C[C@H](NCc1cc(/C=N/CCO)ccn1)C(=O)N1CCCCC1 [Compound 95, (2S)-2-[({4-[[(2-hydroxyethyl)imino]-methyl]pyridin-2-yl}methyl)amino]-4-methyl-1-(piperidin-1-yl)pentan-1-one] |  | > 2.5 | 
16 | CN1CCC(CNCc2cc(C=O)ccn2)CC1 [Compound 100, 2-({[(1-methyl-piperidin-4-yl)methyl]amino}-methyl)pyridine-4-carbaldehyde] | > 2.5 | 0.25 to 2.5 | 
17 | CCN1CCCC1CNC(=O)CNCc1cc(C=O)ccn1 (centres unmarked) [Compound 104, N-[(1-ethylpyrrolidin-2-yl)methyl]-2-{[(4-formylpyridin-2-yl)methyl]amino}-acetamide] | 0.25 to 2.5 | > 2.5 | 
18 | CCN(CC)C(=O)CNCc1cc(C=O)ccn1 [Compound 105, N,N-diethyl-2-{[(4-formylpyridin-2-yl)methyl]amino}-acetamide] |  | > 2.5 | > 2.5
19 | O=Cc1ccnc(CNCCCN2CCCC2)c1 [Compound 111, 2-({[3-(pyrrolidin-1-yl)propyl]amino}-methyl)pyridine-4-carbaldehyde] | > 2.5 | > 2.5 | 
20 | CCN(CC(C)(C)N(C)C)C(=O)CNCc1cc(C=O)ccn1 [Compound 118, N-[2-(dimethylamino)-2-methylpropyl]-N-ethyl-2-{[(4-formylpyridin-2-yl)methyl]amino}-acetamide] | 0.25 to 2.5 | 0.25 to 2.5 | 
21 | CN(CC(=O)N1CCCCC1)Cc1cc(C=O)ccn1 [Compound 120, 2-({methyl[2-oxo-2-(piperidin-1-yl)ethyl]amino}-methyl)pyridine-4-carbaldehyde] | 0.25 to 2.5 | > 2.5 | 
